These results are taken from patent US20240391885A1, “FORMS OF LINERIXIBAT” (GLAXOSMITHKLINE INTELLECTUAL PROPERTY (NO. 2) LIMITED, priority 2020, published 2024).

Data set [1] can be described thus: Solubility of linerixibat drug substance over pH 1.2-6.8 at 37±1° C. (Experiment 8a). The format is physicochemical. On the procedure: The solubility of linerixibat drug substance, in respect of Form I and Form III, was determined over the pH range of 1.2-6.8 at 37±1° C. Eight pH values within this range, including buffers at pH 1.2, 4.5 and 6.8 were evaluated. The therapeutic dose for linerixibat is 40 mg.
• SGF=simulated gastric fluid • BR=Britton Robinson

A short description of data set [2]: Solubility of drug substance samples in biorelevant media and sodium acetate buffer (Experiment 8b). The format is physicochemical. The text has this:
Solubility data was obtained for drug substance samples of linerixibat Form I, linerixibat Form III, and additionally for a sample of Form I compressed to 100 MPa which therefore contained an amount of Form III, in order to replicate typical forces encountered during tablet manufacture.
The media used for the drug substance samples were biorelevant media likely to be experienced in the stomach and the intestine, namely Simulated Gastric Fluid (SGF) over an increasing pH range (1.6, 2.0 and 4.0) and Fasted State Simulated Intestinal Fluid (FaSSIF) at a pH of 6.5. Solubility data was also obtained in 50 mM sodium acetate buffer pH 4.5.

A short description of data set [3]: Miniaturised shake flask solubility in Britton-Robinson buffers and biorelevant media (Experiment 8c). The format is physicochemical. Particulars: 37° C., 1, 4 and 24 hours; FIG. 25. On the procedure:
Solubility of Form I and Form III was also measured in Britton-Robinson buffers (pH 2-8), determined and compared using a standardised miniaturised shake flask method via an automated platform using a development HPLC method for quantification post centrifugation and filtration. Samples were run at 37° C. and performed as 2 replicate preparations for each pH condition and 4 replicate preparations for each biorelevant media condition at 1, 4 and 24 hours.

Data set [4] is described as follows: Storage stability of drug substance by HPLC, XRPD and SSNMR. The format is physicochemical. The conditions noted are these: 1 month of storage at 50° C./ambient RH.
Data set [5] is described as follows: Dissolution of linerixibat tablets (USP <711> Apparatus II). The format is physicochemical. Particulars: at both gastric and intestinal pH (pH 1.2 and pH 6.8). The method, then:
The dissolution procedure developed for Linerixibat Tablets, 40 mg, is determined as directed in USP<711> and the method parameters are presented in Table G. The percentage of dissolved drug is currently determined by gradient reversed-phase HPLC.
The above dissolution method at pH 6.8 was applied to two batches of Linerixibat Tablets, 40 mg and the profiles obtained are shown in FIG. 24.

Data set [6] in a line: Systemic absorption of linerixibat. Particulars: in vivo.

The structures appear in SMILES notation. Converted amounts (≈) assume the structure as drawn.

For `CCCC[C@]1(CC)CS(=O)(=O)c2cc(CNC(CC(=O)O)CC(=O)O)c(OC)cc2[C@@H](c2ccccc2)N1` [Form III], the solubility (usually the concentration that dissolves in the medium under given conditions) at 1 h in data set [1] (Britton Robinson buffer, 37 °C, pH 3.7, aqueous buffer, thermodynamic from solid, nominal pH 3.7, BR buffer, 1-hr timepoint) was found to be 104 µg/mL (≈ 190 µM). In addition, the concentration in solution in data set [1] (Britton Robinson buffer, 37 °C, pH 3.7, aqueous buffer, thermodynamic from solid, nominal pH 3.7, BR buffer, 4-hr timepoint) (solubility at 4 h) was 121 µg/mL (≈ 221 µM). In data set [1] (Britton Robinson buffer, 37 °C, pH 3.7, aqueous buffer, thermodynamic from solid, nominal pH 3.7, BR buffer, 24-hr timepoint), the solubility at 24 h was determined as 129 µg/mL (≈ 236 µM). Moreover, the solubility classification entry in data set [1] (all pHs in the physiological range except close to the solubility minimum (between pH 3.2 and pH 4.2), high solubility = above 0.16 mg/mL (40 mg in 250 mL)) was “highly soluble”. In addition, the Solubility (usually the concentration that dissolves in the medium under given conditions) in data set [1] (nominal pH 1.2, SGF, 37° C., 1-hr timepoint) was more than 1000 µg/mL; in data set [1] (nominal pH 1.2, SGF, 37° C., 4-hr timepoint) it was more than 1000 µg/mL; in data set [1] (nominal pH 1.2, SGF, 37° C., 24-hr timepoint), more than 1000 µg/mL; in data set [1] (nominal pH 3.0, BR buffer, 37° C., 1-hr timepoint) it was 166 µg/mL (≈ 304 µM); in data set [1] (nominal pH 3.0, BR buffer, 37° C., 4-hr timepoint), 205 µg/mL (≈ 375 µM); in data set [1] (nominal pH 3.0, BR buffer, 37° C., 24-hr timepoint) it was 238 µg/mL (≈ 435 µM). In addition, the Solubility was determined as 103 µg/mL (≈ 188 µM) in data set [1] (nominal pH 3.5, BR buffer, 37° C., 1-hr timepoint); 122 µg/mL (≈ 223 µM) in data set [1] (nominal pH 3.5, BR buffer, 37° C., 4-hr timepoint); 130 µg/mL (≈ 238 µM) in data set [1] (nominal pH 3.5, BR buffer, 37° C., 24-hr timepoint); 119 µg/mL (≈ 218 µM) in data set [1] (nominal pH 4.0, BR buffer, 37° C., 1-hr timepoint); 137 µg/mL (≈ 251 µM) in data set [1] (nominal pH 4.0, BR buffer, 37° C., 4-hr timepoint); 147 µg/mL (≈ 269 µM) in data set [1] (nominal pH 4.0, BR buffer, 37° C., 24-hr timepoint). Moreover, the Solubility came to 199 µg/mL (≈ 364 µM) in data set [1] (nominal pH 4.5, Acetate buffer, 37° C., 1-hr timepoint); 252 µg/mL (≈ 461 µM) in data set [1] (nominal pH 4.5, Acetate buffer, 37° C., 4-hr timepoint); 310 µg/mL (≈ 567 µM) in data set [1] (nominal pH 4.5, Acetate buffer, 37° C., 24-hr timepoint); 342 µg/mL (≈ 626 µM) in data set [1] (nominal pH 5.0, BR buffer, 37° C., 1-hr timepoint); 466 µg/mL (≈ 852 µM) in data set [1] (nominal pH 5.0, BR buffer, 37° C., 4-hr timepoint); 620 µg/mL (≈ 1130 µM) in data set [1] (nominal pH 5.0, BR buffer, 37° C., 24-hr timepoint). The Solubility in data set [1] (nominal pH 6.8, Phosphate buffer, 37° C., 1-hr timepoint) is more than 1000 µg/mL; in data set [1] (nominal pH 6.8, Phosphate buffer, 37° C., 4-hr timepoint) it was more than 1000 µg/mL; in data set [1] (nominal pH 6.8, Phosphate buffer, 37° C., 24-hr timepoint) it was more than 1000 µg/mL; in data set [2] (50 mM Sodium Acetate Buffer pH 4.5, 1 Hour, listed as Form 3), 290 µg/mL (≈ 530 µM); in data set [2] (50 mM Sodium Acetate Buffer pH 4.5, 4 Hours, listed as Form 3) it was 290 µg/mL (≈ 530 µM); in data set [2] (50 mM Sodium Acetate Buffer pH 4.5, 24 Hours, listed as Form 3) it was 280 µg/mL (≈ 512 µM). Besides, the Solubility in data set [2] (FaSSIF pH 6.5, 1 Hour, listed as Form 3) amounted to 5200 µg/mL (≈ 9510 µM); in data set [2] (FaSSIF pH 6.5, 4 Hours, listed as Form 3), 5310 µg/mL (≈ 9710 µM); in data set [2] (FaSSIF pH 6.5, 24 Hours, listed as Form 3) it was 5320 µg/mL (≈ 9730 µM); in data set [2] (SGF pH 1.6, 1 Hour, listed as Form 3), 7540 µg/mL (≈ 13800 µM); in data set [2] (SGF pH 1.6, 4 Hours, listed as Form 3), 7900 µg/mL (≈ 14500 µM); in data set [2] (SGF pH 1.6, 24 Hours, listed as Form 3) it was 8620 µg/mL (≈ 15800 µM). Besides, the Solubility in data set [2] (SGF pH 2.0, 1 Hour) stood at 1490 µg/mL (≈ 2730 µM); in data set [2] (SGF pH 2.0, 4 Hours, listed as Form 3) it was 1580 µg/mL (≈ 2890 µM); in data set [2] (SGF pH 2.0, 24 Hours, listed as Form 3), 1700 µg/mL (≈ 3110 µM); in data set [2] (SGF pH 4.0, 1 Hour, listed as Form 3), 160 µg/mL (≈ 293 µM); in data set [2] (SGF pH 4.0, 4 Hours, listed as Form 3), 170 µg/mL (≈ 311 µM); in data set [2] (SGF pH 4.0, 24 Hours, listed as Form 3), 190 µg/mL (≈ 348 µM). Besides, in data set [1] (pH 1.2-6.8, 37±1° C.), the “difference in solubility between Form I and Form III” value is on record as “no significant difference”. For the same molecule, the “solubility comparison of the forms” value in data set [2] (all investigated physiologically relevant pH values (1.6 to 6.5)) was “Forms I and III have very similar solubilities at all investigated physiologically”. Moreover, the “solubility comparison in biorelevant media” value in data set [3] is on record as “very similar”. Moreover, the “change of form or drug-related impurity content” value in data set [4] is recorded as “Laboratory isolated Form III drug substance demonstrated no change in form”.
In the case of `CCCC[C@]1(CC)CS(=O)(=O)c2cc(CNC(CC(=O)O)CC(=O)O)c(OC)cc2[C@@H](c2ccccc2)N1` [linerixibat, 3-({[(3R,5R)-3-butyl-3-ethyl-7-(methyloxy)-1,1-dioxido-5-phenyl-2,3,4,5-tetrahydro-1,4-benzothiazepin-8-yl]methyl}amino)pentanedioic acid], the Solubility in data set [1] (buffer, 37 °C, pH 1.2, simulated gastric fluid, thermodynamic from solid, pH 1.2 (gastric pH), read-out: solubility) was more than 1000 µg/mL; in data set [1] (buffer, 37 °C, pH 6.8, aqueous buffer, thermodynamic from solid, pH 6.8 (intestinal pH), read-out: solubility), more than 1000 µg/mL. In data set [5], the “time to full release” value is 5 min. The systemic absorption result in data set [6] is “minimal systemic absorption”.
